Here are results for four molecules from patent publication US6884809B2 (Cornell Research Foundation, Inc., priority 2001, dated 2005).

A word on the EC50: it is the concentration giving half of the maximal effect.

In one assay the test system is Na+/H+ exchanger (NHE). The assay is described as follows: NHE activity: Na+-dependent pHi recovery after NH4Cl acid pulse in BCECF-loaded SKNMC-H3 cells. The format is cell-based, human.
Assay [1] has as its system guinea-pig heart synaptosomes. The format is cell-based.
The subject of assay [2] is SH-SY5Y-H3 cells. Type of assay: cell-based, human.
Assay [3] deals with SH-SY5Y cells. The format is cell-based, human.
Assay [4] has as its system SH-SY5Y-H3 cells. The assay is described as follows: Cai measurements (Fura-2) in K+-depolarized H3R-transfected SH-SY5Y-H3 cells. Type of assay: cell-based, human.
The next assay deals with H3R (Homo sapiens, UniProt Q9Y5N1). The conditions noted are these: read-out: EC50 to activate the H3R; cited from earlier work.
Sequence of H3R (Q9Y5N1 whole entry, species assumed): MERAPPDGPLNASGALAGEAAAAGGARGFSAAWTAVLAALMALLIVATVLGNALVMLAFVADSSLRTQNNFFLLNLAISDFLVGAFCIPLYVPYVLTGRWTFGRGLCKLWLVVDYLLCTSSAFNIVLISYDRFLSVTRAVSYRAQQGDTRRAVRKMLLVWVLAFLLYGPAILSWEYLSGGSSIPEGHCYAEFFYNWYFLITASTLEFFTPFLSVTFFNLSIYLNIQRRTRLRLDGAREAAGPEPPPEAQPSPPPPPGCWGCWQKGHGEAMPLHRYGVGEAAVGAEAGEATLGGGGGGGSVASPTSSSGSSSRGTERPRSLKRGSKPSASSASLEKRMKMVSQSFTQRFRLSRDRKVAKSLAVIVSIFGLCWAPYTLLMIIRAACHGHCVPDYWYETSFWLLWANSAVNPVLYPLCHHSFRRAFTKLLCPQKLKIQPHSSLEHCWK
Assay [5] deals with SH-SY5Y cells. Type of assay: cell-based, human. The source holds these as a separate data set.
The mark [6] stands for this setting: thioperamide 300 nM plus imetit 100 nM.

As for `CCN(c1nc(N)c(C(=O)N=C(N)N)nc1Cl)C(C)C` [EIPA, 5-(N-ethyl-N-isopropyl)amiloride], the “inhibition of NHE activity” value in the assay on Na+/H+ exchanger (NHE) (EIPA 10 uM) was determined as 50%. For the same molecule, the “mean rate of Na+-dependent intracellular alkalinization (NHE activity)” value in the assay with Na+/H+ exchanger (NHE) (EIPA 10 uM, control 0.074) turned out to be 0.031 pHi units/min.
Consider `N=C(N)SCCc1cnc[nH]1` [imetit, Imetit], for which, in the assay with Na+/H+ exchanger (NHE) (imetit 100 nM), the “inhibition of NHE activity” value is listed as 35%. The “rate of intracellular alkalinization, representative single cell” value in the assay with Na+/H+ exchanger (NHE) (imetit 100 nM, cell of FIG. 1B, control cell 0.094) worked out at 0.050 pHi units/min. For the same molecule, in the assay with Na+/H+ exchanger (NHE) (imetit 100 nM, n=277 cells), the “final pHi after re-introduction of Na+” value was determined as 6.61±0.01. In addition, in the assay with Na+/H+ exchanger (NHE) (imetit-treated cells, n=277), the “initial pHi” value worked out at 6.74±0.01 and the “pHi right before Na+ was reintroduced (0 Na pHi)” value was 6.26±0.01. For the same molecule, the “cells with rates lower than the mean control rate of 0.074 pHi units/min” value with Na+/H+ exchanger (NHE) (imetit-treated, 277 cells) worked out at 77%. For the same molecule, the “concentration-response curve for K+-induced exocytosis of endogenous NE” value in assay [1] is “significantly shifted downwards”. For the same molecule, the “concentration-response curve for K+-induced exocytosis of [3H]NE” value in the assay on SH-SY5Y-H3 cells [2] was “significantly shifted downwards”. Also, in the assay on SH-SY5Y cells [3], the “K+-elicited Cai transients” value was “fails to affect Cai transients” and the “effect on peak Cai concentration elicited by 100 mM K+” value is reported as “failed to affect peak Cai concentration”. In the assay on SH-SY5Y-H3 cells [4], the “K+-elicited Ca2+ transients” value is listed as “markedly depressed” and the “decrease in peak Cai concentration elicited by 100 mM K+” value is 55%. Further, the EC50 at H3R is 2 nM.
`S=C(NC1CCCCC1)N1CCC(c2c[nH]cn2)CC1` [thioperamide, Thioperamide]: in the assay on Na+/H+ exchanger (NHE) (thioperamide 300 nM alone), the “effect on NHE activity” value is given as “did not significantly modify NHE activity”. Besides, the “effect on imetit-induced NHE attenuation” value in the assay with Na+/H+ exchanger (NHE) (setting [6]) is given as “abolished the imetit-induced NHE attenuation”. The “effect on imetit-induced attenuation of endogenous NE exocytosis” value in assay [1] was “prevented”. For the same molecule, the “effect on imetit-induced attenuation of [3H]NE exocytosis” value in the assay on SH-SY5Y-H3 cells [2] is listed as “prevented”. For the same molecule, in the assay with SH-SY5Y-H3 cells [4] (setting [6]), the “effect on imetit-induced depression of the rise in Cai concentration” value is “completely prevented” and the “effect on the imetit response of Ca2+ transients” value was “prevented”.
On to ω-conotoxin GVIA [ω-CTX], for which the “concentration-response curve for K+-induced exocytosis of endogenous NE” value in assay [1] is listed as “shifted markedly downwards”. For the same molecule, the “concentration-response curve for K+-induced exocytosis of [3H]NE” value in the assay with SH-SY5Y cells [5] and in the assay on SH-SY5Y-H3 cells [2] was “shifted markedly downwards” each time. Besides, the “increase in peak Cai concentration on K+ depolarization” value with SH-SY5Y cells [3] and in the assay on SH-SY5Y-H3 cells [4] was “markedly attenuated” in each case.
